The record followed here is ChEMBL document CHEMBL1201862, “PubChem BioAssay data set” (2004).

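Following 48 hours of exposure in 96-well plates, responses at five concentrations were used to interpolate endpoints linearly. Here, GI50 denotes the concentration required for 50% inhibition of growth.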 Activity calls are given as the source filed them. Cut-off read from the data, not from the text of the source: active = GI50 up to about 1.1 µM and inactive = higher. Bounds are passed on as bounds.

Some test systems named below: CAKI-1; DU-145; HCT-15; M14; MOLT-4; Malme-3M; NCI-H23; PC-3; SK-MEL-5; SK-OV-3; SN12C; SNB-19; SW-620; TK-10; U-251; UACC-257; LOX IMVI; OVCAR-4.
Common to all, as to test: inhibition of tumour cell growth, NCI panel, 48 h

For `O=P1(c2ccccc2)C2=CCC=CC2C(c2ccccc2)N1Cc1ccccc1` (centres undefined), the GI50 with CAKI-1 is 13.7 µM (inactive); in the assay on DU-145, 17.5 µM (inactive); in the assay with HCT-15, 14.5 µM; with M14 it was 17.1 µM (inactive); in the assay with MOLT-4, 16.1 µM (inactive); with Malme-3M, 17.8 µM (inactive). The GI50 in the assay with NCI-H23 was 12.3 µM (inactive); with PC-3 it was 13.4 µM (inactive); with SK-MEL-5, 15.2 µM (inactive); with SK-OV-3 it was 17.1 µM (inactive); in the assay with SN12C it was 15.6 µM (inactive); in the assay on SNB-19, 22.4 µM (inactive). The GI50 was 21 µM (inactive) in the assay with SW-620, 20 µM (inactive) in the assay on TK-10, 14.3 µM (inactive) in the assay on U-251 and 20.1 µM (inactive) in the assay with UACC-257.
As to `CCOC(=O)c1nc2cc(C(F)(F)F)ccc2nc1Oc1ccc(OC)cc1`, the GI50 in the assay on CAKI-1 is > 100 µM (inactive); with DU-145, > 100 µM (inactive); with HCT-15 it was more than 100 µM; in the assay with LOX IMVI, > 100 µM (inactive); in the assay on M14 it was > 100 µM (inactive); in the assay with MOLT-4, 45.5 µM (inactive). The GI50 in the assay with Malme-3M, in the assay on OVCAR-4, with PC-3, in the assay on SK-MEL-5, with SN12C and in the assay with SNB-19 was > 100 µM (inactive) each time. For the same compound, the GI50 in the assay on SW-620, in the assay on TK-10, in the assay with U-251 and with UACC-257 was > 100 µM (inactive) each time.
With `N#CC(/N=N/c1ccccc1)c1nc2ccccc2o1` (centres undefined), the GI50 with CAKI-1 was 31.9 µM (inactive); in the assay on DU-145, 26.5 µM (inactive); with HCT-15, more than 100 µM; in the assay on M14 it was 44.8 µM (inactive); in the assay on MOLT-4, 49.4 µM (inactive); in the assay with Malme-3M, 55.8 µM (inactive). Also, the GI50 with NCI-H23 was 18.6 µM (inactive); with OVCAR-4, 11.2 µM (inactive); with PC-3, 29.5 µM (inactive); in the assay on SK-MEL-5 it was 86.9 µM (inactive); with SK-OV-3, 23.7 µM (inactive); with SN12C, 83.4 µM (inactive). The GI50 with SNB-19 is 30.7 µM (inactive); with TK-10 it was 24.5 µM (inactive); in the assay with U-251 it was 22.4 µM (inactive); in the assay with UACC-257 it was > 100 µM (inactive).
`O=C1OC(C2Cc3ccc4ccccc4c3C2=O)c2ccccc21` (centres undefined): the GI50 is 61.9 µM (inactive) with CAKI-1; > 100 µM (inactive) in the assay with DU-145; 34.8 µM in the assay on HCT-15; 38 µM (inactive) in the assay with LOX IMVI; 92.9 µM (inactive) in the assay with M14; 31.4 µM (inactive) with MOLT-4. Besides, the GI50 in the assay on Malme-3M was 50.1 µM (inactive); with OVCAR-4, 24.4 µM (inactive); with PC-3 it was 48.8 µM (inactive); in the assay on SK-MEL-5, 22 µM (inactive); in the assay with SN12C, 93.5 µM (inactive); with SNB-19, 23.2 µM (inactive). The GI50 in the assay with SW-620 is 37.8 µM (inactive); in the assay with TK-10 it was 60 µM (inactive); in the assay on U-251 it was 32.7 µM (inactive); in the assay on UACC-257, 70.8 µM (inactive).
Take `CC(CO)(CO)Nc1ncnc2ccccc12`: the GI50 in the assay with CAKI-1 is > 100 µM (inactive); with DU-145, > 100 µM (inactive); with HCT-15, more than 100 µM; with LOX IMVI, > 100 µM (inactive); in the assay with M14, > 100 µM (inactive); with MOLT-4 it was > 100 µM (inactive). Moreover, the GI50 with Malme-3M was > 100 µM (inactive); in the assay with NCI-H23 it was > 100 µM (inactive); in the assay with OVCAR-4 it was > 100 µM (inactive); in the assay with PC-3 it was > 100 µM (inactive); with SK-MEL-5, 50.1 µM (inactive); in the assay with SN12C, > 100 µM (inactive). Besides, the GI50 with SNB-19, with SW-620, with TK-10, with U-251 and with UACC-257 was > 100 µM (inactive) each time.
`COc1cc(C2SCC(=O)N2c2cc(Cl)c(Cl)cc2Cl)cc(OC)c1OC` (centres undefined): the GI50 was 28.7 µM (inactive) in the assay on CAKI-1; 41.3 µM (inactive) in the assay on DU-145; 29.7 µM with HCT-15; 33.7 µM (inactive) in the assay on LOX IMVI; 54.2 µM (inactive) in the assay on M14; 23.9 µM (inactive) with MOLT-4. Moreover, the GI50 is 50.5 µM (inactive) in the assay on NCI-H23; 38.6 µM (inactive) in the assay on OVCAR-4; 62.8 µM (inactive) in the assay on PC-3; 25.6 µM (inactive) in the assay with SK-MEL-5; 40.7 µM (inactive) in the assay with SK-OV-3; 36.5 µM (inactive) with SN12C. Also, the GI50 in the assay on SNB-19 is 51.8 µM (inactive); in the assay with SW-620, 82 µM (inactive); in the assay with TK-10 it was > 100 µM (inactive); with U-251, 77.8 µM (inactive); with UACC-257, 36.8 µM (inactive).
Turning to `COc1ccc2c(c1)CC[C@@H]1[C@@H]2CC[C@]2(C)[C@@H](O)/C(=C/c3ccncc3)C[C@@H]12`, the GI50 in the assay on CAKI-1 was 14.8 µM (inactive); in the assay on DU-145, 18 µM (inactive); in the assay with HCT-15 it was 6.95 µM; in the assay with M14, 11.3 µM (inactive); in the assay on MOLT-4 it was 4.65 µM (inactive); with Malme-3M, 12.3 µM (inactive). Moreover, the GI50 in the assay with NCI-H23 is 12.8 µM (inactive); in the assay on OVCAR-4, 23.2 µM (inactive); in the assay on PC-3, 10.1 µM (inactive); in the assay on SK-MEL-5 it was 9.75 µM (inactive); with SK-OV-3 it was 21.2 µM (inactive); in the assay on SN12C, 22.8 µM (inactive). In addition, the GI50 was 18.8 µM (inactive) with SNB-19; 6.41 µM (inactive) in the assay on SW-620; 18.9 µM (inactive) in the assay with TK-10; 12.4 µM (inactive) in the assay with U-251; 16.6 µM (inactive) in the assay with UACC-257.
For `C[C@H]1C[C@H](C)c2ccccc2N(C)/C1=N\c1ccccc1`, the GI50 with CAKI-1 was 63.1 µM (inactive); in the assay with DU-145, 92 µM (inactive); in the assay with HCT-15, 37.2 µM; in the assay with LOX IMVI, 13.7 µM (inactive); in the assay on M14, 21.5 µM (inactive); in the assay with MOLT-4 it was 22.5 µM (inactive). Also, the GI50 in the assay on Malme-3M is 22.6 µM (inactive); in the assay on NCI-H23, 20.4 µM (inactive); with OVCAR-4, > 100 µM (inactive); in the assay on PC-3, 29.9 µM (inactive); with SK-MEL-5 it was 16.7 µM (inactive); with SN12C, 36.6 µM (inactive). The GI50 with SNB-19 is 37.8 µM (inactive); in the assay with SW-620 it was 61.5 µM (inactive); in the assay on TK-10 it was 18.6 µM (inactive); in the assay on UACC-257, 20.3 µM (inactive).
As to `COc1ccc2c(c1)CC[C@@H]1[C@@H]2CC[C@]2(C)C(=O)/C(=C/c3cc(OC)c(OC)c(OC)c3)C[C@@H]12`, the GI50 with CAKI-1 was 27.7 µM (inactive); with DU-145 it was 42.4 µM (inactive); with HCT-15 it was 70 µM; with M14 it was 23.2 µM (inactive); with MOLT-4, 95.9 µM (inactive); in the assay with Malme-3M, 17.8 µM (inactive). Also, the GI50 with NCI-H23 is 25 µM (inactive); with OVCAR-4, 40.4 µM (inactive); with PC-3, 14 µM (inactive); in the assay with SK-MEL-5 it was 71.3 µM (inactive); with SK-OV-3 it was 44 µM (inactive); in the assay on SNB-19, 52.6 µM (inactive). Besides, the GI50 was > 100 µM (inactive) with SW-620, 19.4 µM (inactive) with TK-10 and 34.8 µM (inactive) in the assay with U-251.
For `CO/C(=N\N=C(/C)C(F)(F)F)c1ccncc1`, the GI50 was > 100 µM (inactive) with CAKI-1; > 100 µM (inactive) with DU-145; more than 100 µM in the assay on HCT-15; > 100 µM (inactive) in the assay on M14; 44.5 µM (inactive) in the assay on MOLT-4; > 100 µM (inactive) with Malme-3M. Further, the GI50 is > 100 µM (inactive) with NCI-H23; > 100 µM (inactive) in the assay on OVCAR-4; 38.7 µM (inactive) in the assay with PC-3; > 100 µM (inactive) with SK-MEL-5; > 100 µM (inactive) in the assay with SK-OV-3; > 100 µM (inactive) in the assay with SN12C. Further, the GI50 in the assay on SNB-19 and in the assay with U-251 was > 100 µM (inactive) each time.
With `COc1nc2ccc(COc3ccc(C(=O)NC(CCC(=O)O)C(=O)O)cc3)cc2nc1OC` (centres undefined), the GI50 with CAKI-1 is > 10 µM (inactive); in the assay with DU-145, > 10 µM (inactive); with HCT-15, more than 10 µM; in the assay with LOX IMVI, > 10 µM (inactive); in the assay with M14, > 10 µM (inactive); in the assay with MOLT-4, > 10 µM (inactive). The GI50 with NCI-H23, in the assay on OVCAR-4, with PC-3, with SK-MEL-5, with SK-OV-3 and with SN12C was > 10 µM (inactive) in each case. The GI50 in the assay with SNB-19, in the assay with SW-620, with TK-10, in the assay on U-251 and with UACC-257 was > 10 µM (inactive) throughout.
Consider `O=C1OC(c2ccccc2)=N/C1=C\c1ccc([N+](=O)[O-])cc1`, for which the GI50 in the assay with CAKI-1 was 30.7 µM (inactive); in the assay with DU-145, 47.4 µM (inactive); in the assay on HCT-15, more than 100 µM; with LOX IMVI, 26.4 µM (inactive); in the assay on M14, > 100 µM (inactive); with MOLT-4, 15.1 µM (inactive). Also, the GI50 in the assay on NCI-H23 is 24.5 µM (inactive); with OVCAR-4 it was 34.5 µM (inactive); in the assay on PC-3 it was > 100 µM (inactive); with SK-MEL-5 it was 66.8 µM (inactive); in the assay on SK-OV-3, 34.7 µM (inactive); with SN12C, > 100 µM (inactive). Also, the GI50 is 40.6 µM (inactive) with SNB-19; > 100 µM (inactive) in the assay on SW-620; 28.8 µM (inactive) with TK-10; 19.7 µM (inactive) in the assay with U-251; > 100 µM (inactive) in the assay on UACC-257.
